Laboratory results published in US12390437B2, “Itaconic acid derivatives and uses thereof intreating an inflammatory disease or a disease associated with an undesirable immune response” (Sitryx Therapeutics Limited, priority 2019, dated 2025).

What was measured:
[1] = system: IL-1β cytokine output from THP-1s; test: THP-1 AlphaLISA IL-1β cytokine assay; assay type: cell-based, human; details: Homo sapiens, THP-1, PMA-differentiated THP-1 cells, LPS 24 hr then Nigericin 1 hour; read-out: IL-1β (IC50)
Summary of the method: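 Cells are differentiated with PMA over 72 h, switched to 1% FBS medium and treated with compound for 30 min before LPS stimulation for 24 h. Nigericin is added for a final hour, and secreted cytokine is measured by AlphaLISA, with IC50 fitted from percent inhibition.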

[2] = Mouse pharmacokinetic study, oral administration; assay type: in vivo; details: male, C57BL/6, mouse, plasma, po, 100 mg/kg, plasma, male C57BL/6 mice, oral gavage 100 mg/kg; for concentration at 0.083 h: read-out: Parent compound concentrations following oral administration, Time 0.083 h; for concentration at 0.25 h: read-out: Parent compound concentrations following oral administration, Time 0.25 h; for concentration at 0.5 h: read-out: Parent compound concentrations following oral administration, Time 0.5 h; for concentration at 1 h: read-out: Parent compound concentrations following oral administration, Time 1 h; for concentration at 2 h: read-out: Parent compound concentrations following oral administration, Time 2 h; for concentration at 4 h: read-out: Parent compound concentrations following oral administration, Time 4 h; for concentration at 6 h: read-out: Parent compound concentrations following oral administration, Time 6 h; for concentration at 8 h: read-out: Parent compound concentrations following oral administration, Time 8 h; for concentration at 24 h: read-out: Parent compound concentrations following oral administration, Time 24 h
Summary of the method: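 Oral arm: 100 mg/kg gavage in 5% DMSO with 0.5% HPMC/0.1% Tween 80, blood from 5 min to 24 h. Intravenous arm: 10 mg/kg tail-vein injection in 10% DMSO with HP-β-CD, blood from 3 min to 8 h. Male C57BL/6 mice; LC-MS/MS on plasma.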

[3] = system: hepatocytes; test: Hepatocyte stability assay (mouse); assay type: in vitro ADME; details: 10 μM compound, 0.5×10^6 cells/mL, 60 minutes
Summary of the method: (§1)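 Cryopreserved hepatocytes (viability >70%), 0.5×10^6 cells/mL in Leibovitz buffer, incubated at 37 °C with 10 μM compound (0.1% DMSO), duplicates; buffer-only incubations as negative control. Samples at 0-60 min quenched in acetonitrile, parent measured by LC-MS/MS; half-life and Clint (μL min^−1 10^−6 cells) from ln % remaining versus time slope.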

[4] = Hepatocyte stability assay (mouse); assay type: in vitro ADME; details: cryopreserved hepatocytes, 10 μM compound, 0.5×10^6 cells/mL, 60 minutes, read-out: T½
Summary of the method: as §1

Row | Structure (SMILES) | IC50 [1] [µM] | concentration at 0.083 h [2] [ng/mL] | concentration at 0.25 h [2] [ng/mL] | concentration at 0.5 h [2] [ng/mL] | concentration at 1 h [2] [ng/mL] | concentration at 2 h [2] [ng/mL] | concentration at 4 h [2] [ng/mL] | concentration at 6 h [2] [ng/mL] | concentration at 8 h [2] [ng/mL] | concentration at 24 h [2] [ng/mL] | CIint (μL min^−1 10^−6 cells) [3] [μL min^−1 10^−6 cells] | half-life at 10 μM [4] [min]
1 | C=C(CC(=O)OC1CCCCCCC1)C(=O)OC(C)c1nnn[nH]1 (stereo not drawn) [Example 133, 1-(1-(1H-tetrazol-5-yl)ethyl) 4-cyclooctyl 2-methylenesuccinate] | 14.8 | 9360 | 9940 | 4270 | 1100 | 527 | 799 | 146 | 101 | < 8 | 107 | 14
2 | C=C(CC(=O)OC1CCCCCCC1)C(=O)OCc1nnn[nH]1 [Example 134, 1-((1H-tetrazol-5-yl)methyl) 4-cyclooctyl 2-methylenesuccinate] | 9.8 | 17500 | 3500 | 7970 | 1980 | 856 | 636 | 94 | 62 | 7 | 256 | 7
3 | C=C(CC(=O)O[C@H](C)CCCCCC)C(=O)OCc1nn[nH]n1 [Example 161, (R)-1-((2H-tetrazol-5-yl)methyl) 4-(octan-2-yl) 2-methylenesuccinate] | 6.8 | 7020 | 4340 | 1900 | 1260 | 727 | 186 | 108 | 16 | < 4 | >460 | < 3
4 | C=C(CC(=O)O[C@@H](C)CCCCCC)C(=O)OCc1nn[nH]n1 [Example 164, (S)-1-(2H-tetrazol-5-yl)methyl 4-octan-2-yl 2-methylenesuccinate] | 2 | 3790 | 2970 | 1860 | 968 | 585 | 381 | 135 | 181 | < 4 | 259 | 5
5 | C=C(CC(=O)OC1C(C)(C)CC1(C)C)C(=O)OCC(=O)O [Example 169, 2-((2-methylene-4-oxo-4-(2,2,4,4-tetramethylcyclobutoxy)butanoyl)oxy) acetic acid] | 15.6 | 37800 | 9880 | 4600 | 1750 | 971 | 215 | 57 | 7.7 | < 0.8 | 38 | 34
6 | C=C(CC(=O)O[C@@H](CC)CCCCC)C(=O)OCC(=O)O [Example 170, (S)-2-(2-methylene-4-(octan-3-yloxy)-4-oxobutanoyloxy)acetic acid] | 14.7 | 55000 | 38400 | 40600 | 10100 | 4420 | 4400 | 441 | 25 | 8.1 | 64 | 20
7 | C=C(CC(=O)O[C@@H](CCCCCC)C(F)(F)F)C(=O)OCC(=O)O [Example 182, (S)-2-((2-methylene-4-oxo-4-((1,1,1-trifluorooctan-2-yl)oxy)butanoyl)oxy)acetic acid] | 6.1 | 65900 | 46800 | 27900 | 13500 | 5390 | 1370 | 1280 | 417 | 5.9 | 187 | 9
8 | C=C(CC(=O)OC(C)(C)CCCCCC)C(=O)OCC(=O)O [Example 192, 2-((2-methylene-4-((2-methyloctan-2-yl)oxy)-4-oxobutanoyl)oxy)acetic acid] | 10.6 | 47000 | 60700 | 37900 | 25200 | 8740 | 5440 | 79 | 41 | 6.6 | 350 | 5
9 | C=C(CC(=O)OC(C)(C)CCCCC)C(=O)OCC(=O)O [Example 193, 2-((2-methylene-4-((2-methylheptan-2-yl)oxy)-4-oxobutanoyl)oxy)acetic acid] | 17.6 | 52900 | 45600 | 31500 | 8930 | 2120 | 920 | 55 | 19 | 5.6 | 79 | 22
